Patent US20070088064A1, “PHARMACEUTICAL COMPOSITION CONTAINING BICYCLIC TYPE COMPOUNDS” (SmithKline Beecham plc, priority 1992, published 2007)

Test system: electrically-induced seizures
Experiment: Maximal electroshock seizure (MES) threshold test
Format: in vivo
Conditions: 10 mg/kg p.o., mice
Method: The maximal electroshock seizure (MES) threshold test in rodents is particularly sensitive for detecting potential anticonvulsant properties^1. In this model, anticonvulsant agents elevate the threshold to electrically—induced seizures whilst proconvulsants lower the seizure threshold.
Mice (male, Charles River, U.K. CD-1 strain, 25-30 g) are randomly assigned to groups of 10-20 and dosed orally or intraperitoneally at a dose volume of 10 ml/kg with various doses of compound (0.3-300 mg/kg) or vehicle. Mice are then subjected at 30 or 60 min post dose to a single electroshock (0.1 sec, 50 Hz, sine wave form) administered via corneal electrodes. The mean current and standard error required to induce a tonic seizure in 50% (CC50) of the mice in a particular treatment group is determined by the ‘up and down’ method of Dixon and Mood (1948)^2. Stastical comparisons between vehicle—and drug—treated groups are made using the method of Litchfield and Wilcoxon (1949)^3.
In control animals the CC50 is usually 14-18 mA. […] If a tonic convulsion does occur, then the current is decreased, and so on until all the animals in the group have been tested.
The percentage increase or decrease in CC50 for each group compared to the control is calculated. […]

Compound: CC(=O)c1ccc2c(c1)[C@H](NC(=O)c1ccc(F)cc1)[C@H](O)C(C)(C)O2 (relative stereo) [Example 3, cis-6-Acetyl-4S-(4-fluorobenzoylamino)-3,4-dihydro-2,2-dimethyl-2H-1-benzopyran-3S-ol]
- enhanced seizure threshold (percentage increase in CC50 compared to control): 84%

Compound: CCc1ccc2c(c1)[C@H](NC(=O)c1ccc(F)cc1)[C@H](O)C(C)(C)O2 (relative stereo) [Example 7, cis-6-Ethyl-4S-(4-fluorobenzoylamino)-3,4-dihydro-2,2-dimethyl-2H-1-benzopyran-3S-ol]
- enhanced seizure threshold (percentage increase in CC50 compared to control): 105%
